Data reported in PMC4752462 (PLoS ONE, 2016).
Several values for one entry are separate records, joined by “and”; a condition that tells them apart may be missing. Identical values can stand only once.

Tests used:
[1] = plasma pharmacokinetics; cited from earlier work
[2] = target: T1, human recombinant CYP3A4 (Homo sapiens, UniProt P08684); experiment: CYP3A4 inhibition, Vivid CYP450 blue screening kit with baculosomes; format: biochemical; conditions: for CYP3A4 activity (Fig 5 data): control = 100
T1 construct: purchased Life Technologies P2858; host or cells: baculosomes (baculovirus-infected insect cell microsomes)
Protocol: CYP3A4 inhibition assay was carried out by using Vivid® CYP450 Screening Kit from Life Technologies as recommended by the manufacturer (# P2858, Carlsbad, CA). This assay allows rapid measurement of interactions between drugs of interest and CYP enzymes based on their capability to inhibit the production of a fluorescent signal in reactions using CYP BACULOSOMES® Plus Reagents and specific Vivid® Substrates. Briefly, the assay was conducted in a 96-well assay plate. […] The final concentrations of 2.5, 5, 7.5, 10, 25, 50, 75, and 100 μM were achieved by diluting the stocks in 1X Vivid® CYP reaction buffer. […] For ethanol only experiment, 2.5, 5, […], 20, 30, and 50 mM final concentrations were used. The final concentration of acetonitrile in each reaction was 0.01% in 100 μl final reaction volume. The fluorescence was immediately measured using a microplate reader (Cytation™ 5 Cell Imaging Multi-Mode Reader, BioTek, VT) at the 415/460 nm excitation and emission wavelengths.
The concentrations of all the drugs were quantified using Ab Sciex Analyst® software. Microsomal kinetic data were analyzed using Michaelis-Menten and exponential decay equations. CYP3A4 inhibition data were evaluated by fitting the values to dose-response inhibition and calculated IC50 values were reported. All graphs were plotted and two-tailed t-tests were performed wherever appropriate using GraphPad Prism 5.01 (GraphPad, San Diego, CA). Significant differences between more than two groups analyzed with one-way ANOVA followed by Dunnett’s multiple comparison tests using IBM SPSS […] version 20. A p value <0.05 was considered significant compared to respective controls. The original data and/or statistical analyses for Michaelis-Menten Kinetics, drug metabolism and half-life determination, inhibition studies, and ligand docking are provided in the supporting information (S1 file).

T1 sequence (P08684 whole entry): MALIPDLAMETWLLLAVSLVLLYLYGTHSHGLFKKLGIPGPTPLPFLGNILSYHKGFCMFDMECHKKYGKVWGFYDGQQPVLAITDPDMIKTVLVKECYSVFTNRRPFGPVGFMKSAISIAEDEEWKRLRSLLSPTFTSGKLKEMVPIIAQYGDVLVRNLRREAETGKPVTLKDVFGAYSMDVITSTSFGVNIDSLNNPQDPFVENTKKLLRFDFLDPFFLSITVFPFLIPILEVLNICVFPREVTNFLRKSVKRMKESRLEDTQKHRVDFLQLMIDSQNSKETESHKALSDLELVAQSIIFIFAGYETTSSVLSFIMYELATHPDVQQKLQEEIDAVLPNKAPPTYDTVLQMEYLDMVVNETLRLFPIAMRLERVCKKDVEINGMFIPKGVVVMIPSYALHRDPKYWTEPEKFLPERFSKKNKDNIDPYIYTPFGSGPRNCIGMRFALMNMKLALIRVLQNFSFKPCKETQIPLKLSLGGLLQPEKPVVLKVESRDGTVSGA

COc1cc2c(cc1Cc1cccc(Cl)c1F)c(=O)c(C(=O)O)cn2[C@H](CO)C(C)C [EVG, Elvitegravir]
plasma half-life [1]: 2 to 3 h | CYP3A4 activity (Fig 5 data) ([2]; EVG 2.5 uM): 77.957 | CYP3A4 activity (Fig 5 data) ([2]; EVG 5 uM): 63.9794 | CYP3A4 activity (Fig 5 data) ([2]; EVG 7.5 uM): 59.992 | CYP3A4 activity (Fig 5 data) ([2]; EVG 10 uM): 55.6409 | CYP3A4 activity (Fig 5 data) ([2]; EVG 25 uM): 40.6332 | CYP3A4 activity (Fig 5 data) ([2]; EVG 50 uM): 32.8987 | CYP3A4 activity (Fig 5 data) ([2]; EVG 75 uM): 28.0321 | CYP3A4 activity (Fig 5 data) ([2]; EVG 100 uM): 18.7817 | IC50 ([2]; EVG with ethanol at 20 mM): 17.5 ± 1.5 µM | IC50 ([2]; EtOH 20 mM, COBI at concentration matching EVG unless 0.04 μM stated): 13 µM and 13.1 µM | IC50 ([2]; With Ethanol, three values per group): 19 µM and 16.5 µM | increase in the IC50 by ethanol ([2]; ethanol at 20 mM compared to EVG alone): 34%
